Our source for the melting point values is a melting point compilation (Tetko et al.; mined from patent text by program, amines drawn as free bases though some values may be those of a salt).

By melting point is commonly meant the temperature, or range, at which the solid turns liquid.

Consider `CCOC(=O)NCCCCCCNC(=O)OCC`, for which the melting point was 80 to 82 °C.

For the compound `COC(=O)c1cccc(-c2nc(C(Cl)(Cl)Cl)nc(C(Cl)(Cl)Cl)n2)c1`, the melting point was in the range of 115 to 117 °C.

For the compound `CC(C)CCN1C(=O)C(NC(=O)Nc2cccc(N(C)C)c2)C(=O)N(CC23CC4CC(CC(C4)C2)C3)c2ccccc21` (configuration not stated), the melting point was 226 to 227 °C.

`CCS(=O)(=O)Nc1cccc2c1N=C(c1ccc(-n3c(C)nc4cnccc43)cc1)CC(=O)N2` had a melting point of 258 to 260 °C.

Compound `O=C1CCC(N2C(=O)c3cccc(OCc4ccc(CN5CCc6ncccc6C5)cc4)c3C2=O)C(=O)N1` (configuration not stated) showed a melting point of 165 to 167 °C.

With `CC(C)c1cccc(C(C)C)c1NC(=O)C(C)C1c2ccccc2Oc2ccccc21` (configuration not stated), the melting point is 210 to 211 °C.

`CC(C)(C)c1ccc(Oc2ncnc3cc(-c4ncccc4C(F)(F)F)ccc23)cc1` yielded a melting point of 162 to 163 °C.

In turn, `CCCOc1ccc(C(=O)CBr)cc1` displayed a melting point of 36 to 38 °C.

With `CC(C)(C)OC(=O)c1cccc(-c2nc(=O)c3ccccc3s2)n1`, the melting point was 185 to 186 °C.

The compound `CC(=CC#N)Cn1sc2ccccc2c1=O` came in with a melting point of 128 to 130 °C.

The compound `O=[N+]([O-])c1cccc2nc3c(nc12)N1CCCCC1CO3` (configuration not stated) showed a melting point of 182 to 184 °C.

In the case of `C=C(c1ccc(C(=O)OC)cc1)N1CC1C(N)=O` (configuration not stated), the melting point lay in the range of 149 to 150 °C.

Compound `Cc1nc2c(N)nc3ccccc3c2n1CCS(C)(=O)=O` gave a melting point of 242 to 245 °C.

Turning to `CCOC(=O)CC(=O)c1cc(F)c(O)nc1Nc1ccc(F)cc1F`, the melting point was 161 to 162 °C.

With `Cc1nnc2n1-c1sc(CCc3ccc(O)cc3)cc1C(c1ccccc1Cl)=NC2`, the melting point stood at 100 °C.

Turning to `N#Cc1cc(-c2ccoc2)c2ccc(OCc3cccc(-c4ccccc4)n3)cc2c1`, the melting point was in the range of 131 to 133 °C.

For the compound `Cn1ccc2cc(Nc3ccncc3)ccc21`, the melting point was in the range of 202 to 203 °C.

Compound `CCN1C(=O)C(C)(C)C(=O)N(C)c2cc(CN(CCn3ccc4oc(C)cc4c3=O)Cc3ccccc3CO)ccc21` showed a melting point of 159 to 161 °C.

Regarding `COC(=O)c1nn(-c2ccccc2F)cc(OC)c1=O`, the melting point is 155 to 157 °C.

With `O=C(O)Cc1cccc(OCCCc2cc(-c3ccc(C(F)(F)F)cc3)no2)c1`, the melting point lay within 126 to 127 °C.

In turn, `CN(C)CCCNC(=O)N1CCN(c2ccccc2)CC1` displayed a melting point of 91 to 95 °C.

For the compound `C#Cc1ccnc(-c2ccc(-c3cc(C#C)ccn3)c([N+](=O)[O-])c2)c1`, the melting point is 178 to 180 °C.

On to `CCCCNC(=O)Oc1ccc2c(N3CCN(CCCC(=O)c4ccc(F)cc4)CC3)noc2c1`, for which the melting point was in the range of 137 to 141 °C.

In turn, `O=C1CC(C2CCCC2)CN1` (configuration not stated) showed a melting point of 117 to 119 °C.

For the compound `CSc1ccc(-c2nnc(Cl)cc2-c2ccc(Cl)cc2)cc1`, the melting point lay within 145 to 146 °C.

The compound `C=C1CCC(c2ccc(N3CC(COC)OC3=O)cc2)CC1` (racemic) came in with a melting point of 63 to 65 °C.

The compound `CCc1c(Cc2ccccc2)c2ccc(OC)cc2n1CC(=O)NN` came in with a melting point of 164 to 166 °C.

In turn, `NC(=O)N(O)Cc1ccc(OCc2coc(-c3ccc(C(F)(F)F)cc3)n2)cc1` showed a melting point of 128 to 130 °C.

In the case of `O=C(NC[C@@H]1CN2C(=O)C[C@H]2O1)c1ccccc1` (racemic), the melting point fell in the range of 115 to 116 °C.

Turning to `CN1CCN(C=Nc2ccc3nnc(-c4ccc([N+](=O)[O-])o4)n3n2)CC1`, the melting point was 247 to 248 °C.

In turn, `Cc1cc2c(cc1OCCn1ccnc1)CCCC2=O` came in with a melting point of 118 to 120 °C.

The compound `O=C(Nc1nc2cnccc2s1)Oc1ccccc1` displayed a melting point greater than 290 °C.

`Cc1cc(-c2nnc3c4ccccc4c(OCc4nncn4C)nn23)no1` showed a melting point of 261 to 263 °C.

Compound `CCCCN[C@@H]1CN(CC)C[C@H]1O` (relative stereo) displayed a melting point of 57.5 to 59 °C.

For the compound `CN(COC(=O)Cc1ccccc1)C(=O)OC(C)(C)C`, the melting point is 96 to 98 °C.

`COc1ccc(S(=O)(=O)N2CCc3cccc(NC(=O)c4ccncc4)c32)cc1` registered a melting point of 219 to 220 °C.

For the compound `CCCCC1CCC(C2=C(Cl)C(=O)c3ccccc3C2=O)CC1` (configuration not stated), the melting point lay in the range of 107 to 110 °C.

For the compound `CC(C)(C)NC(=O)c1nn(-c2ccc(Cl)cc2F)c2c1C1CCC2C1` (configuration not stated), the melting point lay in the range of 148 to 152 °C.

Regarding `O=C1CCc2sccc21`, the melting point fell in the range of 87 to 88 °C.

In turn, `COC(=O)C(Oc1ccc(CCCCCCCl)cc1)c1ccc(Sc2ccc(Cl)cc2)cc1` (configuration not stated) came in with a melting point of 122 to 124 °C.

Consider `O=C(C[C@@H](CCc1ccccc1)C(=O)O)OCC(Cl)(Cl)Cl`, for which the melting point was 59 to 61 °C.

In turn, `CC(C)(C)OC(=O)N1C(Cc2ccccc2)SC[C@H]1C(=O)O` (some centres not stated) showed a melting point of 156 °C.

On to `NC(=O)CCCCn1cnc(NC(N)=NCC(F)(F)F)n1`, for which the melting point lay within 162 to 164 °C.

In the case of `O=c1[nH]c(=O)n(C2OC(CO)C(O)C2O)cc1C(Cl)=CI` (configuration not stated), the melting point was 109 to 111 °C.

The compound `Nc1c(C(=O)Cc2ccccc2)[nH]c2cc(Cl)ccc12` had a melting point of 204 to 205 °C.

Take `COc1ccc2cc([C@H](C)C(=O)OCCN3CCC(C)(SN=O)CC3)ccc2c1`: the melting point came out at 131 °C.

In the case of `O[C@H]1c2ccccc2C=C[C@@H]1OC(C(F)(F)F)C(F)(F)F`, the melting point was in the range of 88.5 to 90 °C.

On to `CCCc1nc2c(N)nc(C)c(C)c2n1CCCCN(O)C(C)=O`, for which the melting point fell in the range of 164 to 166 °C.

In turn, `CN1CCC(OC2c3ccc(Br)cc3CCn3cc(-c4ccccc4)nc32)CC1` (configuration not stated) displayed a melting point of 92 °C.

On to `CC1(C)CC(=O)Nc2cc3nc(-c4ccc(OS(C)(=O)=O)cc4)[nH]c3cc21`, for which the melting point was in the range of 209 to 215 °C.

Consider `CCOC(=O)COc1cc2cc(CC(C)C)sc2c(Cl)c1Cl`, for which the melting point was in the range of 75 to 76 °C.

For the compound `O=C(O)CCCCCCOc1ccc(-c2ccccc2)cc1`, the melting point was 78 to 79 °C.

The compound `CCCOC(=NNC(=O)OC)OCCC` registered a melting point of 38.1 to 38.3 °C.

Take `COC12CC(c3nnc(-c4cncc(Br)c4)[nH]3)CN(C)C1Cc1c[nH]c3cccc2c13` (configuration not stated): the melting point was 142 to 146 °C.

Compound `CCCN(CCC)CCc1ccc(O)c2nc[nH]c12` yielded a melting point of 135 to 139 °C.

Regarding `O=[N+]([O-])c1ccc2c(c1)OC(CO)(CO)O2`, the melting point was in the range of 111 to 113 °C.

`CCN1CCCC1CNC(=O)c1cc(S(N)(=O)=O)cc2c1OCCO2` (configuration not stated) returned a melting point of 160 to 161 °C.

In turn, `COc1ccccc1-c1ccc2cnc(Nc3cc4c(cc3F)CCC(=O)N4)nn12` returned a melting point of 300 to 305 °C.

Compound `N#CCNC(=O)c1ccc(Cl)c(Cl)c1` yielded a melting point of 144 to 145 °C.

`CCn1c(=O)c2c(-c3nc(C4CC4)no3)ncn2c2cccnc21` yielded a melting point of 262 to 263 °C.

`O=C(Nc1cnc2c(c1)CCCC2)C(Cl)(Cl)Cl` yielded a melting point of 157 to 159 °C.

`N#CC(=O)c1ccccc1CF` showed a melting point of 41 °C.

In turn, `Cn1nnnc1SCCCC(=O)c1ccc(C(=O)O)o1` had a melting point of 154 to 157 °C.

For the compound `CCn1ncc(C(=O)c2ccc(S(C)(=O)=O)c(COC)c2C)c1O`, the melting point fell in the range of 116 to 118 °C.

`C=CCn1c(NC)nn(C(=O)Nc2ccccc2)c1=S` yielded a melting point of 132 to 133 °C.

Take `C=CCNC(=O)C(C)N` (configuration not stated): the melting point lay in the range of 77.5 to 78 °C.

As to `Cc1cccc(NC(=O)NC2CN(CC(=O)N3CC4CCC(CC4)C3)c3c(C)cccc3C(c3ccccc3F)=N2)c1` (configuration not stated), the melting point lay within 246 to 247 °C.

As to `O=C1N(c2ccccc2)CCN1C1CCN(Cc2ccccc2)CC1`, the melting point was in the range of 168 to 170 °C.

With `CC(CC(=O)Nc1cc(Cc2n[nH]c(=O)c3ccccc23)ccc1F)C(=O)O` (configuration not stated), the melting point fell in the range of 140 to 144 °C.

Regarding `Cc1ccc(-c2ccc3c(c2)C=C(C(=O)Nc2ccc(CCN4CCCCC4)cc2)CCO3)cc1`, the melting point fell in the range of 201 to 202 °C.

For the compound `C=CCN(C)c1nc(-c2cc(OC)c(OC)c(OC)c2)nc2sc(C#N)c(C)c12`, the melting point is 162 to 164 °C.

In turn, `COc1cc2c(cc1OC)C1=C(C#N)SC(C)C(=O)N1CC2` (configuration not stated) came in with a melting point of 170 to 171 °C.

Turning to `Cc1cc(C)c(C(C#N)=CO)c(C)c1`, the melting point fell in the range of 124 to 126 °C.

With `O=C(c1ccc(-c2ccccc2)cc1)N1CCc2cn[nH]c2-c2ncccc21`, the melting point lay in the range of 205 to 206 °C.

In turn, `CC1(C)OC(=S)Nc2ccc(-c3cccc(F)c3)cc21` gave a melting point of 194 to 195 °C.

The compound `O=C1OC[C@H]2[C@@H]1N(Cc1ccccc1)C(=O)N2Cc1ccccc1` (relative stereo) yielded a melting point of 106 to 109 °C.

On to `CC1(C)CC(O)CC(C)(C)N1Cc1ccccc1`, for which the melting point was in the range of 151 to 152 °C.

In the case of `O=C(O)C(=O)CC(=O)c1cccn1Cc1cccc(Br)c1`, the melting point was in the range of 164 to 166 °C.

`COc1cc2c(cc1O)CCC1C2CCC2(C)C1CCC21OCCO1` (configuration not stated) came in with a melting point of 150 to 151 °C.

Compound `CCCCCCCCCOc1ccc(Cl)c(C(N)=O)c1F` returned a melting point of 75 to 77 °C.

The compound `COc1ccc(C(=O)C23CCCCC2C(=O)O3)cc1` (configuration not stated) displayed a melting point of 77.5 to 78.5 °C.

For `CC(C)(C)OC(=O)NC1CCN(c2ccc(C(=O)O)cc2)CC1`, the melting point is greater than 300 °C.

For the compound `Clc1nccc(-n2ccnc2)n1`, the melting point came out at 128 °C.

Take `N#CC1(c2ccc(Cl)cc2)C2CC3CC(C2)CC1C3` (configuration not stated): the melting point was 132 to 133 °C.

In turn, `COC(=O)c1nc2cc(I)ccc2c(O)c1C(=O)OC` gave a melting point of 243 to 244 °C.

The compound `CC1(C)C(=O)Nc2cc3[nH]c(-c4ccc(O)cc4)nc3cc21` came in with a melting point of 240 °C.

Consider `OCCC(O)OCn1cc(Cl)c2c(Cl)ncnc21` (configuration not stated), for which the melting point fell in the range of 142 to 143 °C.

`N#Cc1cc(F)c(F)cc1N` returned a melting point of 114 °C.

Turning to `CC(C)(C)OC(=O)Nc1cccc(C(=O)OCc2ccccc2)c1`, the melting point was in the range of 151 to 153 °C.

Regarding `O=c1ccoc2cccc(OCCCN3CCN(c4ccccc4)CC3)c12`, the melting point fell in the range of 106 to 112 °C.

Turning to `NC(=O)NC(=S)NC(=O)c1ccc(Cl)cc1`, the melting point was in the range of 155 to 158 °C.

The compound `CCCNC(=O)c1c(OCc2ccc(-c3ccccc3-c3nnn[nH]3)cc2)cc(C)nc1C` displayed a melting point of 196 to 198 °C.
